# According to publication PMC8688955 (Frontiers in Pharmacology, 2021):
# Legend:
# [1] = test system: CP-AMPARs; experiment: Whole-cell patch-clamp of kainate-induced currents in isolated striatal giant interneurons; assay type: cell-based, Wistar rat; details: −80 mV; for CP-AMPARs % inhibition at 100 µM: 100 µM compound, currents induced by 100 µM kainate, mean ± SD, N = 5
# Experimental: All experimental procedures were approved by the Animal Care and Use Committee of the I.M. Sechenov Institute of Evolutionary Physiology and Biochemistry of the Russian Academy of Sciences. Wistar rats (13–19 days old) were anesthetized with sevoflurane and then decapitated. Maximum effort was made to minimize the number of animals used. Brains were removed quickly and cooled to 2–4°C in an ice bath. […] Single neurons were freed from slices by vibrodissociation ([Vorobjev, 1991]). The antagonism of CP-AMPARs was studied on striatal giant interneurons ([Bernard et al., 1997]; [Gotz et al., 1997]), which were identified by their shape and size. […] The antagonism of CI-AMPARs was studied on pyramidal neurons from the CA1 area of the hippocampus.
# (§1) Series resistance of about 20 MΩ was compensated by 70–80% and monitored during experiments. Currents were recorded using an EPC-8 amplifier (HEKA Electronics, Lambrecht, Germany), filtered at 5 kHz, sampled, and stored on a personal computer. Drugs were applied using the RSC-200 perfusion system (BioLogic Science Instruments, Claix, France) under computer control. The solution exchange time in the whole-cell mode was 50–60 ms. The extracellular solution contained (in mM) NaCl 143, KCl 5, MgCl2 2.0, CaCl2 2.5, D-glucose 18, and HEPES 10 (pH was adjusted to 7.3 with HCl). The pipette solution contained (in mM) CsF 100, CsCl 40, NaCl 5, CaCl2 0.5, EGTA 5, and HEPES 10 (pH was adjusted to 7.2 with CsOH). Experiments were performed at room temperature (22–24°C). […] Lamotrigine, topiramate, levetiracetam, felbamate, carbamazepine, tiagabin, vigabatrin, zonisamide, and gabapentin were purchased from Tocris Bioscience (Bristol, United Kingdom). Perampanel was from MedChemExpress (Stockholm, Sweden). Kinetics of transient processes of more than 20-ms duration was approximated by exponential functions. Experiments were performed at −80 mV holding voltage. All experimental data are presented as mean ± SD estimated from at least four experiments. Significance of the effects was tested with paired t test. Differences were considered significant at p < 0.05. 3D structures of compounds were calculated by the ZMM software (zmmsoft.ca).
# [2] = test system: AMPAR; design: method as in Dudic and Reiner, 2019; details: ref Dudic and Reiner, 2019; cited from earlier work
# [3] = molecular target: T1, CI-AMPARs (Rattus norvegicus, UniProt P19491, Q607R); experiment: Whole-cell patch-clamp of kainate-induced currents in isolated hippocampal CA1 pyramidal neurons; assay type: cell-based, Wistar rat; details: currents induced by 100 µM kainate, −80 mV, mean ± SD, N = 5; for CI-AMPARs % inhibition at 100 µM: 100 µM compound; for inhibition at 100 µM: read-out: CI-AMPARs % inhibition at 100 µM, 100 µM compound
# T1 construct: activity against native calcium-permeable AMPA receptors (CP-AMPARs) and calcium-impermeable AMPA receptors (CI-AMPARs); endogenous in cells; host or cells: acutely isolated pyramidal neurons from the CA1 area of Wistar rat hippocampal slices
# T1 sequence (P19491 22-883 Q607R): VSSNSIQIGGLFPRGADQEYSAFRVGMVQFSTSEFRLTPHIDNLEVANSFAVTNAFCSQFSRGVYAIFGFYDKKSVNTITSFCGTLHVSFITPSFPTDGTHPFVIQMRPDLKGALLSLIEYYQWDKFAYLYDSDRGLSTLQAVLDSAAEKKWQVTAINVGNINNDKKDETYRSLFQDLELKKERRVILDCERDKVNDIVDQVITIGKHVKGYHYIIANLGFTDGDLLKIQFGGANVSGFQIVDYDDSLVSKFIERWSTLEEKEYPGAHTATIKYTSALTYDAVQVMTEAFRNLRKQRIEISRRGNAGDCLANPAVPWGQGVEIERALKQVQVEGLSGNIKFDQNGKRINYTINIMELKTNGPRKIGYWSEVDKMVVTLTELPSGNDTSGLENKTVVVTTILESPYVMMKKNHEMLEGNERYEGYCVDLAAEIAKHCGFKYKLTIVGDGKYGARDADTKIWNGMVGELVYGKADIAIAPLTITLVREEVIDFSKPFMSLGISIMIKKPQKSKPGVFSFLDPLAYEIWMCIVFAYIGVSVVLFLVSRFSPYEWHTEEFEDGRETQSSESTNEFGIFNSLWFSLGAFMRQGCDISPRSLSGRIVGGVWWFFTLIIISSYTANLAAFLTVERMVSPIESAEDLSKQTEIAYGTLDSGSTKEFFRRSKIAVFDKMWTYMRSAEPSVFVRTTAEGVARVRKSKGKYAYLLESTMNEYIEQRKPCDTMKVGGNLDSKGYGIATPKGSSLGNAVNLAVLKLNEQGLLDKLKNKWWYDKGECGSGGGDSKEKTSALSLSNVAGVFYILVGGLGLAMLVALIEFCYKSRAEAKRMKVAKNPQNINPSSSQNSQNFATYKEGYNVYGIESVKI
# Experimental: All experimental procedures were approved by the Animal Care and Use Committee of the I.M. Sechenov Institute of Evolutionary Physiology and Biochemistry of the Russian Academy of Sciences. Wistar rats (13–19 days old) were anesthetized with sevoflurane and then decapitated. Maximum effort was made to minimize the number of animals used. Brains were removed quickly and cooled to 2–4°C in an ice bath. […] The antagonism of CI-AMPARs was studied on pyramidal neurons from the CA1 area of the hippocampus.
# as §1, with “The extracellular solution contained (in mM) NaCl 143, KCl 5, MgCl2 2.0, CaCl2 2.5, D-glucose 18, and HEPES 10 (pH was adjusted to 7.3 with HCl).” left out
# [4] = test system: AMPA receptors; design: method as in Carunchio et al., 2007; details: 200 µM levetiracetam; ref Carunchio et al., 2007; cited from earlier work
# [5] = test system: hGluA1-4 receptors; design: method as in Fukushima et al. (2020); details: ref Fukushima et al. (2020); cited from earlier work
# [6] = test system: postsynaptic AMPA receptors; design: method as in Lee et al., 2008; details: 30 and 100 µM lamotrigine; ref Lee et al., 2008; cited from earlier work
# [7] = test system: AMPA and kainate-evoked Ca^2+ uptake; details: 30 and 100 µM topiramate; ref Poulsen et al., 2004; cited from earlier work
SMILES,"IC50 ([1]; read-out: IC50 CP-AMPARs, kainate-induced currents, Hill equation)",pH-dependence [2],CP-AMPARs % inhibition at 100 µM [1],CP-AMPARs % inhibition at 100 µM ([1]; listed as levetiracetam),CI-AMPARs % inhibition at 100 µM [3],CI-AMPARs % inhibition at 100 µM ([3]; listed as levetiracetam),decrease of the amplitude of kainate-induced current [4],activity against hGluA1-4 receptors [5],CP-AMPARs % inhibition at 100 µM ([1]; listed as lamotrigine),inhibition at 100 µM [3],decrease of the amplitude of the currents induced by exogenously applied AMPA [6],CP-AMPARs % inhibition at 100 µM ([1]; listed as topiramate),inhibition of AMPA and kainate-evoked Ca^2+ uptake [7]
O=c1[nH]c2cc([N+](=O)[O-])c([N+](=O)[O-])cc2[nH]c1=O [DNQX],310 ± 60 nM,Yes ^a,–,–,–,–,–,–,–,–,–,–,–
CC[C@@H](C(N)=O)N1CCCC1=O [Levetiracetam],–,–,9 ± 3%,≤ 20%,6 ± 2%,≤ 20%,about 26%,did not find significant activity,–,–,–,–,–
Nc1nnc(-c2cccc(Cl)c2Cl)c(N)n1 [Lamotrigine],–,–,13 ± 3%,–,14 ± 5%,–,–,did not find significant activity,≤ 20%,≤ 20%,10%,–,–
CC1(C)O[C@@H]2[C@@H](CO[C@@]3(COS(N)(=O)=O)OC(C)(C)O[C@@H]23)O1 [Topiramate],–,–,14 ± 2%,–,12 ± 2%,–,–,did not find significant activity,–,≤ 20%,–,≤ 20%,up to 60%
